The target of the assay is RAF proto-oncogene serine/threonine-protein kinase (Homo sapiens, UniProt P04049). Description: Kinase Assay: Protein kinase assay: Assay platform was used to measure kinase/inhibitor interactions as described previously (Anastassiadis et al., 2011). In brief, for each reaction, kinase and substrate were mixed in a buffer containing 20 mM HEPES (pH 7.5), 10 mM MgCl2, 1 mM EGTA, 0.02% Brij35, 0.02 mg/mL BSA, 0.1 mM Na3VO4, 2 mM DTT, and 1% DMSO. All compounds were solubilized in DMSO. Compounds were then added to each reaction mixture via acoustic dispense using an ECHO 550 nanoliter dispenser. For human RAF1 testing, human MEK1 (K97R) was used as a substrate at a concentration of 3 micromolar, with a final ATP concentration of 10 micromolar. For human BRAF testing, human MEK1 (K97R) was used as a substrate at 1 micromolar concentration, with a final ATP concentration of 25 micromolar. […] After a 20-min incubation, ATP (Sigma-Aldrich, St. Louis, Mo. 63178) and [g33P] ATP (specific activity 10 microCi/microliter) purchased at PerkinElmer (Boston, Mass., 02118 Cat #BLU 003H250UC) were added at a final total concentration of 10 mM. Reactions were carried out at room temperature for 2 hr and spotted onto P81 ion exchange cellulose chromatography paper (Reaction Biology). Filter paper was washed in 0.75% phosphoric acid to remove unincorporated ATP. The percent remaining kinase activity relative to a vehicle-containing (DMSO) kinase reaction was calculated for each kinase/inhibitor pair. […].
Chain of RAF proto-oncogene serine/threonine-protein kinase (P04049 whole entry): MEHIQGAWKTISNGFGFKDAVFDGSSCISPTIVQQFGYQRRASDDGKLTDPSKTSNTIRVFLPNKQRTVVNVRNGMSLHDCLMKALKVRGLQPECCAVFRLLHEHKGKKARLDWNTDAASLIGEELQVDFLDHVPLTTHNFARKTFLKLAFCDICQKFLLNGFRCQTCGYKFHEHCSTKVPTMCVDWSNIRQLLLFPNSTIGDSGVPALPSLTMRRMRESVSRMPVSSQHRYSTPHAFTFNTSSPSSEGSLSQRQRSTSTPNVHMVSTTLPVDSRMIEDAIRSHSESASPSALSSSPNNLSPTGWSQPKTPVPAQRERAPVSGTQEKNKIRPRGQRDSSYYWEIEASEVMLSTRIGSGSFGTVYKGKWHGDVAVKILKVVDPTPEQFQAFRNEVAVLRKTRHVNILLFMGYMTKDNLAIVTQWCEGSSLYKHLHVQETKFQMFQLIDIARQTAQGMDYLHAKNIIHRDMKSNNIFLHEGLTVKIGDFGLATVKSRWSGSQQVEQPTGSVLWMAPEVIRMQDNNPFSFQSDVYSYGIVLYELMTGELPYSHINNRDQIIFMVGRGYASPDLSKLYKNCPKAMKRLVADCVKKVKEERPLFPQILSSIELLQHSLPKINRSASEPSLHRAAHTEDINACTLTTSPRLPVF

A word on the IC50: it is the concentration that inhibits the measured activity by half. Regarding `CNc1ncc2cc(-c3cc(NC(=O)N4CC[C@H](C(F)(F)F)C4)c(F)cc3C)c(C)nc2n1`, the IC50 was under 0.01 µM.

The values above are taken from ChEMBL document CHEMBL5729738, “Inhibitors of RAF kinases” (2023).
